The values that follow come from patent US20230119833A1, “NMR METHODS FOR CHARACTERIZING IRON SUCROSE” (Amphastar Pharmaceuticals, Inc., priority 2020, published 2023).

This data set can be described thus: 13C NMR peak width at half-height (PWHH) and relative PWHH of sucrose peaks, Example 1. The data set is classed as physicochemical. The note with it: for PWHH, three lots mean, Average: average of the twelve 13C peaks. Here is the method:
In Example 1, ^13C NMR was performed on three (3) samples (e.g 3 lots) of a comparator iron sucrose drug product having an equivalent concentration of 20 mg base/mL, and three (3) samples (e.g 3 lots) of a tested iron sucrose drug product having an equivalent concentration of 20 mg base/mL were analyzed by ^13C NMR in Example 1. The comparator product was Venofer® having an equivalent concentration of 20 mg base/mL. In addition, ^13C NMR was also performed on 3 samples (e.g. 3 lots) of free sucrose sample. Free sucrose is sucrose only with no iron.
The average PWHH of the 3 lots of the comparator iron sucrose drug product is identified as w in Tables 1 and 2. The average PWHH of the 3 lots of the tested iron sucrose drug productis identified as w in Tables 1 and 2. The average PWHH of the 3 lots of sucrose only sample is identified as w0 in Tables 1 and 2.
In addition to PWHH, a RPWHH is another characterization method disclosed herein. […] As provided in Table 1, the RPWHH averaged among the twelve (12) C peaks and the 3 lots for: (i) w1/wo is 8.5 f 1.0, and (ii) w2/wo is 7.9±1.1.

Consider `OC[C@H]1O[C@@](CO)(O[C@H]2O[C@H](CO)[C@@H](O)[C@H](O)[C@H]2O)[C@@H](O)[C@@H]1O` [Sucrose Only, sucrose], for which the “PWHH, three lots mean, Average” value turned out to be 15.0 ppb. For the same molecule, the “PWHH, three lots mean” value (13C Peak No. 1, 106.0 ppm, Fructose, Carbon Atom No. 8) was 10.6 ppb. Where the note is “13C Peak No. 2, 95.0 ppm, Glucose, Carbon Atom No. 1”, the “PWHH, three lots mean” value is 14.7 ppb. Moreover, the “PWHH, three lots mean” value (13C Peak No. 3, 84.0 ppm, Fructose, Carbon Atom No. 11) is reported as 13.4 ppb. In addition, the “PWHH, three lots mean” value (13C Peak No. 4, 79.0 ppm, Fructose, Carbon Atom No. 9) was 16.3 ppb. The “PWHH, three lots mean” value (13C Peak No. 5, 76.0 ppm, Fructose, Carbon Atom No. 10) amounted to 15.8 ppb. Also, the “PWHH, three lots mean” value (13C Peak No. 6, 75.4 ppm, Glucose, Carbon Atom No. 3) is 14.3 ppb. The “PWHH, three lots mean” value (13C Peak No. 7, 75.2 ppm, Glucose, Carbon Atom No. 5) worked out at 14.9 ppb. In addition, the “PWHH, three lots mean” value (13C Peak No. 8, 73.9 ppm, Glucose, Carbon Atom No. 2) was 15.7 ppb. In addition, the “PWHH, three lots mean” value (13C Peak No. 9, 72.0 ppm, Glucose, Carbon Atom No. 4) amounted to 13.7 ppb. For the same molecule, where the note is “13C Peak No. 10, 65.2 ppm, Fructose, Carbon Atom No. 7”, the “PWHH, three lots mean” value is given as 16.2 ppb. In addition, the “PWHH, three lots mean” value (13C Peak No. 11, 64.1 ppm, Fructose, Carbon Atom No. 12) came to 17.6 ppb. Moreover, for the setting “13C Peak No. 12, 62.9 ppm, Glucose, Carbon Atom No. 6”, the “PWHH, three lots mean” value worked out at 17.2 ppb. The “PWHH, three lots mean, Average” value (listed as w0) turned out to be 15±2 ppb.
